Test results published in ChEMBL document CHEMBL5505997, “Synthesis and biological evaluation of novel peptidomimetic inhibitors of the coronavirus 3C-like protease” (Eur J Med Chem, 2024).

Legend:
[1] = Cytotoxicity against African green monkey Vero cells assessed as reduction in cell viability; type: toxicity, cell-based; details: chlorocebus sabaeus
[2] = Cytotoxicity against human PBMC cells assessed as reduction in cell viability; type: toxicity, cell-based
[3] = system: CCRF-CEM; assay: (§1) Cytotoxicity against human CEM cells assessed as reduction in cell viability; type: toxicity, cell-based; details: ccrf-cem
[4] = system: Human coronavirus OC43; assay: Antiviral activity against Human coronavirus OC43 infected in Vero cells assessed as reduction in viral yield preincubated with virus for 1 hr followed by washout and compound treatment and measured after 3 days by qRT-PCR analysis; type: functional, organism-based; details: Betacoronavirus 1, Vero; for EC90: 72 h, time 3 day
[5] = system: SARS-CoV-2; assay: Antiviral activity against SARS-CoV-2 infected in Vero cells assessed as reduction in viral yield measured after 48 hrs by qRT-PCR analysis; type: functional, organism-based; details: Severe acute respiratory syndrome coronavirus 2, Vero; for EC50: 48 h; for EC90: time 48 hrs
[6] = system: Huh-7; assay: (§2) Cytotoxicity against human Huh-7 cells assessed as reduction in cell viability; type: toxicity, cell-based; details: huh-7
[7] = (§3) Cytotoxicity against human Caco-2 cells assessed as reduction in cell viability; type: toxicity, cell-based; details: Caco-2 cells
[8] = system: SARS-CoV-2; assay: Antiviral activity against SARS-CoV-2 infected in human Calu-3 cells assessed as reduction in viral yield measured after 72 hrs by qRT-PCR analysis; type: functional, organism-based, Severe acute respiratory syndrome coronavirus 2; details: for EC50: Severe acute respiratory syndrome coronavirus 2, Calu-3, 72 h; for EC90: Severe acute respiratory syndrome coronavirus 2, Calu-3, time 72 hrs
[9] = system: SARS-CoV-2; assay: Antiviral activity against SARS-CoV-2 infected in human Caco-2 cells assessed as reduction in viral yield measured after 72 hrs by qRT-PCR analysis; type: functional, organism-based, Severe acute respiratory syndrome coronavirus 2; details: for EC90: Severe acute respiratory syndrome coronavirus 2, Caco-2, time 72 hrs
[10] = as §1; type: toxicity, cell-based, CCRF-CEM; details: CEM (CCRF-CEM) cells
[11] = system: SARS-CoV-2; assay: Antiviral activity against SARS-CoV-2 hCoV-19/USA-WA1/2020 Washington strain infected in Normal human bronchial/tracheal epithelial cells cultured in air-liquid interface media assessed as reduction in viral yield pretreated with compound followed by viral infection for 4 hrs post washout and measured 3 days after virus removal by qRT-PCR analysis; type: functional, organism-based; details: Severe acute respiratory syndrome coronavirus 2, hCoV-19/USA-WA1/2020 Washington, Epithelial cell
[12] = system: SARS-CoV-2; assay: Antiviral activity against wild type SARS-CoV-2 WA1 infected in HEK293T cells measured after 48 hrs by Nano-Glo luciferase assay; type: functional, organism-based; details: Severe acute respiratory syndrome coronavirus 2, WA1, HEK-293T
[13] = system: SARS-CoV-2; assay: Antiviral activity against SARS-CoV-2 hCoV-19/USA/GA-EHC-2811C/2021 (Omicron B.1.1.529) infected in human Calu-3 cells assessed as reduction in viral yield measured after 48 hrs by qRT-PCR analysis; type: functional, organism-based; details: Severe acute respiratory syndrome coronavirus 2, hCoV-19/USA/GA-EHC-2811C/2021 (Omicron B.1.1.529); for EC50: Calu-3, 48 h; for EC90: Calu-3, time 48 hrs
[14] = (§4) Cytotoxicity against human Calu-3 cells assessed as reduction in cell viability; type: toxicity, cell-based; details: Calu-3 cells
[15] = system: SARS-CoV-2; assay: Antiviral activity against wild type SARS-CoV-2 Omicron BA.1 infected in HEK293T cells measured after 48 hrs by Nano-Glo luciferase assay; type: functional, organism-based; details: Severe acute respiratory syndrome coronavirus 2, Omicron BA.1, HEK-293T
[16] = as §2; type: toxicity, cell-based; details: Huh-7 cells
[17] = system: Caco-2; assay: as §3; type: toxicity, cell-based; details: caco-2
[18] = system: SARS-CoV-2; assay: Selectivity ratio of EC50 for antiviral activity against SARS-CoV-2 infected in Vero cells to EC50 for antiviral activity against SARS-CoV-2 infected in human Caco-2 cells; type: functional, Severe acute respiratory syndrome coronavirus 2
[19] = system: SARS-CoV-2; assay: Selectivity ratio of EC50 for antiviral activity against SARS-CoV-2 infected in Vero cells to EC50 for antiviral activity against SARS-CoV-2 infected in human Calu-3 cells; type: functional, Severe acute respiratory syndrome coronavirus 2
[20] = Solubility of compound in PBS; type: physicochemical; details: buffer
[21] = system: Calu-3; assay: as §4; type: toxicity, cell-based; details: calu-3
[22] = molecular target: Replicase polyprotein 1ab (Severe acute respiratory syndrome coronavirus 2) (UniProt P0DTD1); assay: Potency index, ratio of nirmatrelvir IC50 to test compound IC50 for inhibition of amino-terminal His-SUMO tagged SARS-CoV-2 3CLpro using HilyteFluor 488-Glu-Ser-Ala-Thr-Leu-Gln-Ser-Gly-Leu-Arg-Lys-Ala-Lys-QXL 520 as FRET peptide substrate preincubated for 90 mins followed by substrate addition and measured over 30 mins by continuous FRET assay; details: time > 120.0 min
[23] = molecular target: Replicase polyprotein 1ab (Severe acute respiratory syndrome coronavirus 2) (UniProt P0DTD1); assay: Binding affinity to SARS-CoV-2 3CLpro assessed as thermal stabilization by measuring fold increase in melting temperature incubated for 60 mins by SYPRO orange dye based thermal shift assay relative to nirmatrelvir
[24] = Metabolic stability in human liver microsomes assessed as half life at 1 uM incubated for 90 mins in presence of ritonavir at 1:1 combination by LC-MS/MS analysis; type: ADME, Microsome; details: 1.5 h
[25] = molecular target: Replicase polyprotein 1ab (Severe acute respiratory syndrome coronavirus 2) (UniProt P0DTD1); details: time 60.0 min
[26] = molecular target: Replicase polyprotein 1ab (Severe acute respiratory syndrome coronavirus 2, UniProt P0DTD1); assay: Inhibition of amino-terminal His-SUMO tagged SARS-CoV-2 3CLpro using HilyteFluor 488-Glu-Ser-Ala-Thr-Leu-Gln-Ser-Gly-Leu-Arg-Lys-Ala-Lys-QXL 520 as FRET peptide substrate preincubated for 90 mins followed by substrate addition and measured over 30 mins by continuous FRET assay
[27] = molecular target: Replicase polyprotein 1ab (Severe acute respiratory syndrome coronavirus 2) (UniProt P0DTD1); details: time 60.0 min; remark: listed apart in the source
[28] = Metabolic stability in human liver microsomes assessed as half life at 1 uM measured after 0 to 90 mins by LC-MS/MS analysis; type: ADME, Microsome; details: time 0-90 min
[29] = Metabolic stability in human liver microsomes assessed as half life at 1 uM incubated for 90 mins in presence of ritonavir at 1:10 combination by LC-MS/MS analysis; type: ADME, Microsome; details: 1.5 h
[30] = Metabolic stability in human liver microsomes assessed as reduction in decay rate at 1 uM incubated for 90 mins in presence of ritonavir by LC-MS/MS analysis; type: ADME, Microsome; details: 1.5 h

CC(C)C[C@H](NC(=O)[C@H](Cc1cccc2ccccc12)NC(=O)OCc1ccccc1)C(=O)N[C@H](C=O)C[C@@H]1CCCNC1=O
CC50 ([1]; vero): > 100 µM | CC50 ([2]; pbmc): 42.4 µM | CC50 [3]: 24.3 µM | EC50 [4]: 700 nM | EC90 [4]: 1000 nM | EC50 [5]: 2.6 µM | EC90 [5]: 5.9 µM | CC50 [6]: 38.9 µM

CC(C)C[C@H](NC(=O)[C@H](Cc1cccc2ccccc12)NC(=O)OCc1ccccc1)C(=O)N[C@H](C#N)C[C@@H]1CCCNC1=O
CC50 ([1]; vero): > 100 µM | CC50 ([2]; pbmc): > 100 µM | CC50 [3]: > 100 µM | EC50 [4]: 700 nM | EC90 [4]: 5100 nM | EC50 [5]: > 10 µM | EC90 [5]: > 10 µM | CC50 [6]: > 100 µM

CCOC(=O)/C=C/[C@H](C[C@@H]1CCCNC1=O)NC(=O)[C@H](CC(C)C)NC(=O)[C@H](Cc1cccc2ccccc12)NC(=O)c1cc(C)on1
CC50 ([1]; vero): > 100 µM | CC50 ([2]; pbmc): > 100 µM | CC50 [3]: 33.4 µM | EC50 [4]: 7300 nM | EC90 [4]: 9700 nM | EC50 [5]: > 10 µM | EC90 [5]: > 10 µM | CC50 [6]: 51.4 µM

CC(C)(C)[C@H](NC(=O)C(F)(F)F)C(=O)N1C[C@H]2[C@@H]([C@H]1C(=O)N[C@H](C#N)C[C@@H]1CCNC1=O)C2(C)C
CC50 [7]: > 100 µM | CC50 ([1]; Vero cells): > 100 µM | EC50 [8]: 1900 nM | EC90 [8]: 7.6 µM | CC50 ([2]; PBMC cells): > 100 µM | EC90 [9]: 300 nM | CC50 [10]: > 100 µM | EC50 [11]: 30 nM | EC90 [11]: 200 nM | EC50 [4]: 200 nM | EC90 [4]: 300 nM | EC50 [12]: 34 nM | EC50 [13]: 700 nM | EC90 [13]: 5.3 µM | CC50 [14]: > 100 µM | EC50 [15]: 110 nM | EC50 [5]: 3.7 µM | EC90 [5]: 5.6 µM | CC50 [16]: > 100 µM

CC(C)C[C@H](NC(=O)[C@H](Cc1cccc2ccccc12)NC(=O)OCc1ccccc1)C(=O)N[C@H](/C=C(\C#N)C(N)=O)C[C@@H]1CCCNC1=O
CC50 ([1]; vero): > 100 µM | CC50 ([2]; pbmc): > 100 µM | CC50 [3]: 29 µM | EC50 [4]: 900 nM | EC90 [4]: 7000 nM | EC50 [5]: > 10 µM | EC90 [5]: > 10 µM | CC50 [6]: 29 µM

Cc1cc(C(=O)N[C@@H](Cc2cccc3ccccc23)C(=O)N[C@@H](CC(C)C)C(=O)N[C@@H](C[C@@H]2CCCNC2=O)C(O)S(=O)(=O)[O-])no1.[Na+] (some centres undefined)
CC50 [17]: > 100 µM | CC50 ([1]; vero): > 100 µM | EC50 [8]: 1200 nM | EC90 [8]: 5.3 µM | CC50 ([2]; pbmc): 58.6 µM | EC90 [9]: 1700 nM | CC50 [3]: 24.3 µM | Ratio EC50 [18]: 15 | Ratio EC50 [19]: 3 | EC50 [11]: 400 nM | EC90 [11]: 700 nM | EC50 [4]: 300 nM | solubility [20]: 0.4 mg/mL | EC50 [13]: 800 nM | EC90 [13]: 2.7 µM | CC50 [21]: > 100 µM | EC50 [5]: 4.5 µM | EC90 [5]: 9.3 µM | CC50 [6]: 51.1 µM

CC(C)C[C@H](NC(=O)[C@H](Cc1ccc(F)cc1)NC(=O)OCc1ccccc1)C(=O)N[C@H](C=O)C[C@@H]1CCCNC1=O
CC50 ([1]; vero): > 100 µM | CC50 ([2]; pbmc): > 100 µM | CC50 [3]: > 100 µM | EC50 [4]: 800 nM | EC90 [4]: 2600 nM | EC50 [5]: 6.7 µM | EC90 [5]: 7.4 µM | CC50 [6]: > 100 µM

Cc1cc(C(=O)N[C@@H](Cc2cccc3ccccc23)C(=O)N[C@@H](CC(C)C)C(=O)N[C@H](C=O)C[C@@H]2CCCNC2=O)no1
Ratio IC50 [22]: 2 | CC50 [17]: > 100 µM | CC50 ([1]; vero): 84.3 µM | fold change (FC) [23]: 2 | EC90 [8]: 4.3 µM | CC50 ([2]; pbmc): 30.9 µM | EC50 ([9]; Severe acute respiratory syndrome coronavirus 2, Caco-2, 72 h): 100 nM | EC90 [9]: 1200 nM | CC50 [3]: 13.9 µM | Ratio EC50 [18]: 15 | Ratio EC50 [19]: 3 | EC50 [11]: 600 nM | EC90 [11]: 1800 nM | t1/2 [24]: > 90 min | EC50 [4]: 100 nM | EC90 [4]: 700 nM | EC50 [12]: 200 nM | solubility [20]: < 0.01 mg/mL | EC50 [13]: 1100 nM | EC90 [13]: 3.5 µM | Tm [25]: 69.9 °C | CC50 [21]: > 100 µM | EC50 [15]: 320 nM | EC50 [5]: 4.6 µM | EC90 [5]: 9 µM | IC50 [26]: 166 nM | ΔTm [27]: 13.9 °C | t1/2 [28]: < 5 min | CC50 [6]: 32.7 µM | t1/2 [29]: > 90 min | Stability [30]: Stable
